Columns and labels:
CD4+ T-cells [1] = type: cell-based, human; details: for effect of the change on the percent of responders to the modified epitope sequence: epitope #49 substitution, 69 donors
CD4+ T-cells [2] = assay: I-MUNE assay: proliferation of CD4+ T-cells with differentiated dendritic cells in response to beta-lactamase 15-mer peptides; type: cell-based, human
[3] = system: HLA-DRB1 and DQB1 antigens; assay: HLA association with responses to epitope peptides; set-up: species or system human
Experimental: HLA-DR and DQ types were analyzed for associations with responses to defined epitope peptides. A Chi-squared analysis, with one degree of freedom was used to determine significance. Where an allele was present in both the responder and non-responder pools, a relative risk was calculated.
The HLA-DR and DQ expression of 65 of the donors tested in both rounds of assay testing described above were assessed using a commercially available PCR-based HLA typing kit (Bio-Synthesis). […] Wherever the HLA antigen was present in both reactive and non-reactive donors, a relative risk (i.e., the increased or decreased likelihood of presenting a reaction conditioned on the presence of the HLA antigen) was computed. […] In addition, the mean and standard error of quantitative response for each peptide were determined.
The magnitude of the proliferative response to an individual peptide in responders and non-responders expressing epitope-associated HLA alleles were also be analyzed. An “individual responder to the peptide” is defined by a stimulation index of greater than 2.95.

Substance: GTTRLYANASFGLFG (beta-lactamase epitope) [Peptide I155F, peptide #49 with the substitution I155F]
- effect of the change on the percent of responders to the modified epitope sequence (CD4+ T-cells [1]): little effect

Substance: tetanus toxoid [reference compound]
- positive control proliferative response (CD4+ T-cells [2]; approximately 5 Lf/mL): robust positive control responses

Substance: #107 (TGGFGSYVAFIPEKQ; listed as Enterobacter cloacae)
- response of DR13 non-responders lower than the other genotypes ([3]; among non-responders): 23%
- increase of quantitative response in DR1+ relative to DR1- responders ([3]; donors reactive to the peptide): 27%
- quantitative response of DR1+ responders ([3]; donors reactive to the peptide): 5.4
- quantitative response of DR1- responders ([3]; donors reactive to the peptide): 4.2
- response (percent responders) (CD4+ T-cells [2]): 12.11%

Substance: #36 (MLDLATYTAGGLPLQ; listed as Enterobacter cloacae)
- quantitative response of DR1+ responders ([3]; donors reactive to the peptide): 7.8
- quantitative response of DR1- responders ([3]; donors reactive to the peptide): 4.42
- response (percent responders) (CD4+ T-cells [2]): 12.11%

Substance: GTTRLYANASVGLFG (beta-lactamase epitope) [Peptide I155V, peptide #49 with the substitution I155V]
- effect of the change on the percent of responders to the modified epitope sequence (CD4+ T-cells [1]): increased the percent of responders

Substance: GTTRSYANASIGLFG (variant of SEQ ID NO82) [Peptide L149S, peptide #49 with the substitution L149S]
- effect on the epitope response rate (CD4+ T-cells [1]): had an effect

Substance: GTTRLYANASLGLFG (beta-lactamase epitope) [Peptide I155L, peptide #49 with the substitution I155L]
- effect of the change on the percent of responders to the modified epitope sequence (CD4+ T-cells [1]): little effect

Source: patent publication US20050164308A1, “Beta-lactamase CD4+ T-cell epitopes” (priority 2003, published 2005)
